Data reported in the supplement of paper PMC10307832.

Experiments:
Test in all cases: relative viability (nuclei count vs DMSO), 5 days (fraction); higher = more cells survive
[1] = tested on: NCI-H2347
How it was run: (§1)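 Lung cancer cell lines in 1536-well plates got either a single drug or a fixed anchor-drug dose together with five library-drug doses (not always all listed) in √10 steps, by pin tool, on the day after seeding. Nuclei were counted after 5 days, and relative viability is the treated-to-vehicle ratio of nuclei counts. Values are medians of duplicate plates.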

[2] = tested on: NCI-H2126
How it was run: as §1

[3] = tested on: H3255
How it was run: as §1

[4] = tested on: NCI-H520
How it was run: as §1

[5] = tested on: NCI-H522
How it was run: as §1

[6] = tested on: COR-L 105
How it was run: as §1

[7] = tested on: NCI-H2087
How it was run: as §1

[8] = tested on: NCI-H322M
How it was run: as §1

[9] = tested on: 201T
How it was run: as §1

[10] = tested on: NCI-H1915
How it was run: as §1

[11] = tested on: EPLC-272H
How it was run: as §1

[12] = tested on: NCI-H2405
How it was run: as §1

[13] = tested on: ChaGo-K-1
How it was run: as §1

[14] = tested on: HCC-827
How it was run: as §1

[15] = tested on: PC-14
How it was run: as §1

[16] = tested on: NCI-H23
How it was run: as §1

[17] = tested on: NCI-H650
How it was run: as §1

[18] = tested on: NCI-H661
How it was run: as §1

[19] = tested on: LCLC-97TM1
How it was run: as §1

[20] = tested on: LC-2-ad
How it was run: as §1

[21] = tested on: RERF-LC-KJ
How it was run: as §1

[22] = tested on: NCI-H1666
How it was run: as §1

[23] = tested on: NCI-H647
How it was run: as §1

[24] = tested on: HCC-78
How it was run: as §1

For `C[C@@H]1CN(CC(=O)Nc2ccc3c(c2)Cc2cccc(-c4cc(=O)cc(N5CCOCC5)o4)c2S3)C[C@H](C)O1` + CC(=O)c1c(C)c2cnc(Nc3ccc(N4CCNCC4)cn3)nc2n(C2CCCC2)c1=O [Palbociclib] (partner 0.5 µM), the relative viability ([1]; first compound 0.04 µM) was 0.377, the relative viability ([1]; first compound 0.1265 µM) was 0.493 and the relative viability ([1]; first compound 0.4 µM) was 0.459. For the same compound, the relative viability ([1]; first compound 4 µM) was 0.404, the relative viability ([2]; first compound 0.04 µM) was 0.384 and the relative viability ([2]; first compound 0.1265 µM) was 0.343. For the same compound, the relative viability ([2]; first compound 0.4 µM) was 0.348, the relative viability ([2]; first compound 4 µM) was 0.334 and the relative viability ([3]; first compound 0.04 µM) was 0.276. The relative viability ([3]; first compound 0.1265 µM) was 0.345, the relative viability ([3]; first compound 0.4 µM) was 0.268 and the relative viability ([3]; first compound 4 µM) was 0.305. It also gave a relative viability ([4]; first compound 0.04 µM) of 0.219, a relative viability ([4]; first compound 0.1265 µM) of 0.259 and a relative viability ([4]; first compound 0.4 µM) of 0.172. For the same compound, the relative viability ([4]; first compound 4 µM) was 0.215, the relative viability ([5]; first compound 0.04 µM) was 0.934 and the relative viability ([5]; first compound 0.1265 µM) was 0.839. It also gave a relative viability ([5]; first compound 0.4 µM) of 1.06, a relative viability ([5]; first compound 4 µM) of 0.972 and a relative viability ([6]; first compound 0.04 µM) of 0.391. The relative viability ([6]; first compound 0.1265 µM) was 0.424, the relative viability ([6]; first compound 0.4 µM) was 0.397 and the relative viability ([6]; first compound 4 µM) was 0.328. For the same compound, the relative viability ([7]; first compound 0.04 µM) was 0.213, the relative viability ([7]; first compound 0.1265 µM) was 0.253 and the relative viability ([7]; first compound 0.4 µM) was 0.244. The relative viability ([7]; first compound 4 µM) was 0.267, the relative viability ([8]; first compound 0.04 µM) was 0.421 and the relative viability ([8]; first compound 0.1265 µM) was 0.475. The relative viability ([8]; first compound 0.4 µM) was 0.506, the relative viability ([8]; first compound 4 µM) was 0.522 and the relative viability ([9]; first compound 0.04 µM) was 0.345. For the same compound, the relative viability ([9]; first compound 0.1265 µM) was 0.35, the relative viability ([9]; first compound 0.4 µM) was 0.361 and the relative viability ([9]; first compound 4 µM) was 0.336. It also gave a relative viability ([10]; first compound 0.04 µM) of 0.517, a relative viability ([10]; first compound 0.1265 µM) of 0.526 and a relative viability ([10]; first compound 0.4 µM) of 0.507. For the same compound, the relative viability ([10]; first compound 4 µM) was 0.311, the relative viability ([11]; first compound 0.04 µM) was 0.38 and the relative viability ([11]; first compound 0.1265 µM) was 0.388. It also gave a relative viability ([11]; first compound 0.4 µM) of 0.331, a relative viability ([11]; first compound 4 µM) of 0.321 and a relative viability ([12]; first compound 0.04 µM) of 0.564. The relative viability ([12]; first compound 0.1265 µM) was 0.521, the relative viability ([12]; first compound 0.4 µM) was 0.486 and the relative viability ([12]; first compound 4 µM) was 0.506. For the same compound, the relative viability ([13]; first compound 0.04 µM) was 0.902, the relative viability ([13]; first compound 0.1265 µM) was 0.924 and the relative viability ([13]; first compound 0.4 µM) was 0.925. It also gave a relative viability ([13]; first compound 4 µM) of 0.898, a relative viability ([14]; first compound 0.04 µM) of 0.502 and a relative viability ([14]; first compound 0.1265 µM) of 0.49. For the same compound, the relative viability ([14]; first compound 0.4 µM) was 0.433, the relative viability ([14]; first compound 4 µM) was 0.442 and the relative viability ([15]; first compound 0.04 µM) was 0.529. The relative viability ([15]; first compound 0.1265 µM) was 0.506, the relative viability ([15]; first compound 0.4 µM) was 0.568 and the relative viability ([15]; first compound 4 µM) was 0.423. The relative viability ([16]; first compound 0.04 µM) was 0.455, the relative viability ([16]; first compound 0.1265 µM) was 0.538 and the relative viability ([16]; first compound 0.4 µM) was 0.436. It also gave a relative viability ([16]; first compound 4 µM) of 0.495, a relative viability ([17]; first compound 0.04 µM) of 0.319 and a relative viability ([17]; first compound 0.1265 µM) of 0.389. It also gave a relative viability ([17]; first compound 0.4 µM) of 0.378, a relative viability ([17]; first compound 4 µM) of 0.281 and a relative viability ([18]; first compound 0.04 µM) of 0.404. For the same compound, the relative viability ([18]; first compound 0.1265 µM) was 0.442, the relative viability ([18]; first compound 0.4 µM) was 0.387 and the relative viability ([18]; first compound 4 µM) was 0.383. The relative viability ([19]; first compound 0.1265 µM) was 0.25, the relative viability ([19]; first compound 0.4 µM) was 0.206 and the relative viability ([19]; first compound 4 µM) was 0.246. For the same compound, the relative viability ([20]; first compound 0.04 µM) was 0.493, the relative viability ([20]; first compound 0.1265 µM) was 0.465 and the relative viability ([20]; first compound 0.4 µM) was 0.466. It also gave a relative viability ([20]; first compound 4 µM) of 0.419, a relative viability ([21]; first compound 0.04 µM) of 1.03 and a relative viability ([21]; first compound 0.1265 µM) of 1.05. The relative viability ([21]; first compound 0.4 µM) was 1.17, the relative viability ([21]; first compound 4 µM) was 0.818 and the relative viability ([22]; first compound 0.04 µM) was 0.584. For the same compound, the relative viability ([22]; first compound 0.1265 µM) was 0.616, the relative viability ([22]; first compound 0.4 µM) was 0.611 and the relative viability ([22]; first compound 4 µM) was 0.662. It also gave a relative viability ([23]; first compound 0.04 µM) of 0.376, a relative viability ([23]; first compound 0.1265 µM) of 0.336 and a relative viability ([23]; first compound 0.4 µM) of 0.444. The relative viability ([23]; first compound 4 µM) was 0.273, the relative viability ([24]; first compound 0.04 µM) was 0.456 and the relative viability ([24]; first compound 0.1265 µM) was 0.458. The relative viability ([24]; first compound 0.4 µM) was 0.48 and the relative viability ([24]; first compound 4 µM) was 0.487.
Work on `CC(C)Oc1cc(Nc2nc(N[C@@H](C)c3ccc(F)cn3)ncc2Cl)n[nH]1` [AZ23] + CCNC(=O)c1noc(-c2cc(C(C)C)c(O)cc2O)c1-c1ccc(CN2CCOCC2)cc1 [Luminespib] (partner 0.01 µM) yielded a relative viability ([1]; first compound 0.01 µM) of 0.486, a relative viability ([1]; first compound 0.03162 µM) of 0.62 and a relative viability ([1]; first compound 0.3162 µM) of 0.41. For the same compound, the relative viability ([2]; first compound 0.01 µM) was 0.954, the relative viability ([2]; first compound 0.03162 µM) was 1 and the relative viability ([2]; first compound 0.3162 µM) was 0.875. For the same compound, the relative viability ([3]; first compound 0.01 µM) was 0.574, the relative viability ([3]; first compound 0.03162 µM) was 0.888 and the relative viability ([3]; first compound 0.3162 µM) was 0.854. For the same compound, the relative viability ([4]; first compound 0.01 µM) was 0.236, the relative viability ([4]; first compound 0.03162 µM) was 0.22 and the relative viability ([4]; first compound 0.3162 µM) was 0.212. The relative viability ([5]; first compound 0.01 µM) was 1.06, the relative viability ([5]; first compound 0.03162 µM) was 1.08 and the relative viability ([5]; first compound 0.3162 µM) was 1.15. It also gave a relative viability ([6]; first compound 0.01 µM) of 0.83, a relative viability ([6]; first compound 0.03162 µM) of 0.872 and a relative viability ([6]; first compound 0.3162 µM) of 0.731. The relative viability ([7]; first compound 0.01 µM) was 0.151, the relative viability ([7]; first compound 0.03162 µM) was 0.171 and the relative viability ([7]; first compound 0.3162 µM) was 0.169. For the same compound, the relative viability ([8]; first compound 0.03162 µM) was 0.879, the relative viability ([8]; first compound 0.3162 µM) was 1.08 and the relative viability ([9]; first compound 0.01 µM) was 1.15. The relative viability ([9]; first compound 0.03162 µM) was 1.02, the relative viability ([9]; first compound 0.3162 µM) was 1.02 and the relative viability ([10]; first compound 0.01 µM) was 1.17. The relative viability ([10]; first compound 0.03162 µM) was 0.866, the relative viability ([10]; first compound 0.3162 µM) was 0.805 and the relative viability ([11]; first compound 0.01 µM) was 0.15. It also gave a relative viability ([11]; first compound 0.03162 µM) of 0.203, a relative viability ([11]; first compound 0.3162 µM) of 0.551 and a relative viability ([12]; first compound 0.01 µM) of 0.717. It also gave a relative viability ([12]; first compound 0.03162 µM) of 0.679, a relative viability ([12]; first compound 0.3162 µM) of 0.661 and a relative viability ([13]; first compound 0.01 µM) of 0.637. It also gave a relative viability ([13]; first compound 0.03162 µM) of 0.687, a relative viability ([13]; first compound 0.3162 µM) of 0.7 and a relative viability ([14]; first compound 0.01 µM) of 0.372. The relative viability ([14]; first compound 0.03162 µM) was 0.74, the relative viability ([14]; first compound 0.3162 µM) was 0.649 and the relative viability ([15]; first compound 0.03162 µM) was 0.21. For the same compound, the relative viability ([15]; first compound 0.3162 µM) was 0.21, the relative viability ([16]; first compound 0.03162 µM) was 0.229 and the relative viability ([16]; first compound 0.3162 µM) was 0.204. The relative viability ([17]; first compound 0.01 µM) was 0.665, the relative viability ([17]; first compound 0.03162 µM) was 0.854 and the relative viability ([17]; first compound 0.3162 µM) was 0.765. It also gave a relative viability ([18]; first compound 0.01 µM) of 1.06, a relative viability ([18]; first compound 0.03162 µM) of 0.867 and a relative viability ([18]; first compound 0.3162 µM) of 0.984. It also gave a relative viability ([19]; first compound 0.01 µM) of 0.846, a relative viability ([19]; first compound 0.03162 µM) of 0.783 and a relative viability ([19]; first compound 0.3162 µM) of 0.796. It also gave a relative viability ([20]; first compound 0.01 µM) of 1.26, a relative viability ([20]; first compound 0.03162 µM) of 0.965 and a relative viability ([20]; first compound 0.3162 µM) of 0.93. For the same compound, the relative viability ([21]; first compound 0.01 µM) was 1.34, the relative viability ([21]; first compound 0.03162 µM) was 1.43 and the relative viability ([21]; first compound 0.3162 µM) was 1.38. It also gave a relative viability ([22]; first compound 0.01 µM) of 1.05, a relative viability ([22]; first compound 0.03162 µM) of 1.34 and a relative viability ([22]; first compound 0.3162 µM) of 0.943. It also gave a relative viability ([23]; first compound 0.01 µM) of 0.125, a relative viability ([23]; first compound 0.03162 µM) of 0.107 and a relative viability ([23]; first compound 0.3162 µM) of 0.149.
